Data from patent US12673918B2, “Small molecule RPN13 inhibitors with antitumor properties” (The Johns Hopkins University, priority 2019, dated 2026).
Like-named read-outs stand apart in the source and are kept apart here.

Key:
SiHa [1] = assay: MTT cytotoxicity assay, SiHa; conditions: read-out: cytotoxicity IC50 SiHa; Tables 3A/4B/4C; MTT assay
HeLa [2] = assay: MTT cytotoxicity assay, HeLa; conditions: read-out: cytotoxicity IC50 HeLa, Tables 3A/4B/4C
KLE = assay: MTT cytotoxicity assay, KLE; conditions: read-out: cytotoxicity IC50 KLE, Tables 3A/4B/4C
HEC-1A = assay: MTT cytotoxicity assay, HEC-1A; conditions: read-out: cytotoxicity IC50 HEC-1A, Tables 3A/4B/4C
TOV21G = assay: MTT cytotoxicity assay, TOV21G; conditions: read-out: cytotoxicity IC50 TOV21G; Tables 3A/4B/4C; MTT assay
UWB1.289 + BRCA1 = assay: MTT cytotoxicity assay, UWB1.289 + BRCA1; assay type: cell-based; conditions: Tables 3A/4B/4C, BRCA1 + Ve
TC1-Lu = assay: MTT cytotoxicity assay, TC1-Lu; conditions: read-out: cytotoxicity IC50 TC1-Lu; Tables 3A/4B/4C; MTT assay
CaSki [3] = assay: MTT cytotoxicity assay, CaSki; conditions: read-out: cytotoxicity IC50 CasKi; Tables 3A/4B/4C; MTT assay
PEO4 = conditions: read-out: cytotoxicity IC50 PEO4; Tables 3A/4B/4C; MTT assay
PEA2 = conditions: read-out: cytotoxicity IC50 PEA2; Tables 3A/4B/4C; MTT assay
multiple myeloma = conditions: cited from earlier work
CaSki [4] = system: CaSki
HeLa [5] = system: HeLa
SiHa [6] = system: SiHa

C[C@@H]1/C(=C\c2ccc([N+](=O)[O-])cc2)C(=O)/C(=C/c2ccc([N+](=O)[O-])cc2)CN1C(=O)[C@@H](N)Cc1ccccc1 [RA413R]
IC50 (SiHa [1]): 139 nM | IC50 (HeLa [2]): 172 nM | IC50 (KLE): 1430 nM | IC50 (HEC-1A): 268 nM | IC50 (SKOV3): 161 nM | IC50 (TOV21G): 20 nM | IC50 (UWB1.289 + BRCA1): < 20 nM | IC50 (TC1-Lu): 1800 nM | IC50 (CaSki [3]): 220 nM

N.N.[Cl][Pt][Cl] [CP, Cisplatin]
IC50 (PEO4): 19500 nM | IC50 (PEA2): 9850 nM

C=CC(=O)N1CC/C(=C\c2ccc(F)c([N+](=O)[O-])c2)C(=O)/C(=C/c2ccc(F)c([N+](=O)[O-])c2)C1 [VLX1570]
IC50 (DLD-BRCA2-Ve): 8540 nM | dose at which anti-myeloma effects were observed (multiple myeloma; phase I patients (70)): ≥ 0.6 mg/kg | adverse events (multiple myeloma; two patients at the 1.2 mg/kg dose level (70)): severe, abrupt, and progressive respiratory insufficiency, culminating in death | IC50 (RPE1-ATMKO): 963 nM | IC50 (OVCAR3): 18 nM | IC50 (SKOV3-TR): 300 nM | IC50 (SKOV3): 128 nM | IC50 (DLD-Seckle): 964 nM | IC50 (CaSki [4]): 68 nM | IC50 (BR5-Luc): 4.8 nM | IC50 (HeLa [5]): 111 nM | IC50 (SiHa [6]): 54 nM | IC50 (BR5-FvB1): 250 nM
